# Test system: interferon-stimulated genes (ISGs)
# Experiment: Microarray analysis of iCell Hepatocytes treated with the compound of example 1
# Format: cell-based, Human
# Description: iCell Hepatocytes treated with the compound of example 1 results in the up and down-regulation of a host of genes; including a kinetic effect on interferon-stimulated gene (ISGs) expression. See FIGS. 15-I and 15-II, 16-I and 16-II and 18 and Table 1.
compound,measurement,setting,value
"O=C(NCc1cccc(F)c1)c1cccc2nc(-c3c(NC[C@@H](O)c4ccccc4)cc[nH]c3=O)[nH]c12 [Example 1, 2-[4-((S)-2-hydroxy-2-phenyl-ethylamino)-2-oxo-1,2-dihydro-pyridin-3-yl]-3H-benzoimidazole-4-carboxylic acid 3-fluoro-benzylamide]",ADAM19 Raw Est Fold Change,2 HOUR,2.77
same,AES Raw Est Fold Change,2 HOUR,2.07
same,AKT3 Raw Est Fold Change,2 HOUR,−1.76
same,ASNS Raw Est Fold Change,2 HOUR,1.80
same,BCL3 Raw Est Fold Change,2 HOUR,−1.44
same,BUB1 Raw Est Fold Change,2 HOUR,−20.72
same,C10orf10 Raw Est Fold Change,2 HOUR,−3.72
same,CD80 Raw Est Fold Change,2 HOUR,−13.65
same,CD300LF Raw Est Fold Change,2 HOUR,5.42
same,CEBPD Raw Est Fold Change,2 HOUR,−1.29
same,CSNK1D Raw Est Fold Change,2 HOUR,1.10
same,DDIT4 Raw Est Fold Change,2 HOUR,2.67
same,DRAP1 Raw Est Fold Change,2 HOUR,1.17
same,EFNB2 Raw Est Fold Change,2 HOUR,−1.63
same,EHHADH Raw Est Fold Change,2 HOUR,−1.16
same,EPAS1 Raw Est Fold Change,2 HOUR,−2.61
same,ETV7 Raw Est Fold Change,2 HOUR,−2.54
same,FGF2 Raw Est Fold Change,2 HOUR,−1.76
same,GOLGA3 Raw Est Fold Change,2 HOUR,1.45
same,GTPBP2 Raw Est Fold Change,2 HOUR,−1.29
same,HLA-C Raw Est Fold Change,2 HOUR,−4.87
same,ISGF3G Raw Est Fold Change,2 HOUR,−1.17
same,JAK1 Raw Est Fold Change,2 HOUR,−5.55
same,JUNB Raw Est Fold Change,2 HOUR,−6.01
same,KAL1 Raw Est Fold Change,2 HOUR,−2.61
same,KPNB1 Raw Est Fold Change,2 HOUR,1.14
same,MAX Raw Est Fold Change,2 HOUR,3.74
same,MPO Raw Est Fold Change,2 HOUR,−3.18
same,PCMT1 Raw Est Fold Change,2 HOUR,−1.10
same,PHF11 Raw Est Fold Change,2 HOUR,−1.80
same,PHF15 Raw Est Fold Change,2 HOUR,1.74
same,PI4K2B Raw Est Fold Change,2 HOUR,−1.08
same,PIM3 Raw Est Fold Change,2 HOUR,−1.19
same,PXK Raw Est Fold Change,2 HOUR,1.17
same,RHOH Raw Est Fold Change,2 HOUR,−14.71
same,SCARB2 Raw Est Fold Change,2 HOUR,1.50
same,SOCS1 Raw Est Fold Change,2 HOUR,−4.13
same,SOCS3 Raw Est Fold Change,2 HOUR,−9.95
same,TXNIP Raw Est Fold Change,2 HOUR,−2.04
same,ABHD5 Raw Est Fold Change,24 HOUR,−1.43
same,ADM Raw Est Fold Change,24 HOUR,−1.81
same,AKAP12 Raw Est Fold Change,24 HOUR,3.33
same,ALCAM Raw Est Fold Change,24 HOUR,−1.24
same,AMPH Raw Est Fold Change,24 HOUR,−3.29
same,ARHGDIB Raw Est Fold Change,24 HOUR,−1.72
same,ARHGEF3 Raw Est Fold Change,24 HOUR,−1.32
same,ATF3 Raw Est Fold Change,24 HOUR,−3.06
same,AXL Raw Est Fold Change,24 HOUR,−6.82
same,B4GALT5 Raw Est Fold Change,24 HOUR,−1.87
same,BAG1 Raw Est Fold Change,24 HOUR,1.26
same,BCL3 Raw Est Fold Change,24 HOUR,−3.11
same,BHMT Raw Est Fold Change,24 HOUR,5.84
same,BLZF1 Raw Est Fold Change,24 HOUR,−1.26
same,BST2 Raw Est Fold Change,24 HOUR,−1.70
same,BTG1 Raw Est Fold Change,24 HOUR,−1.16
same,BUB1 Raw Est Fold Change,24 HOUR,−33.18
same,C1S Raw Est Fold Change,24 HOUR,−1.62
same,C4orf32 Raw Est Fold Change,24 HOUR,−7.20
same,C4orf33 Raw Est Fold Change,24 HOUR,3.95
same,C10orf10 Raw Est Fold Change,24 HOUR,−2.71
same,CASP4 Raw Est Fold Change,24 HOUR,−5.09
same,CASP5 Raw Est Fold Change,24 HOUR,−3.00
same,CCND3 Raw Est Fold Change,24 HOUR,−1.81
same,CD38 Raw Est Fold Change,24 HOUR,−10.02
same,CD47 Raw Est Fold Change,24 HOUR,−1.52
same,CEBPD Raw Est Fold Change,24 HOUR,−2.58
same,CHD6 Raw Est Fold Change,24 HOUR,1.16
same,CHST12 Raw Est Fold Change,24 HOUR,−1.21
same,CLCN6 Raw Est Fold Change,24 HOUR,−1.26
same,CREB3L3 Raw Est Fold Change,24 HOUR,−3.22
same,CRYM Raw Est Fold Change,24 HOUR,2.03
same,CSDA Raw Est Fold Change,24 HOUR,−2.38
same,CTSL Raw Est Fold Change,24 HOUR,−1.28
same,CX3CL1 Raw Est Fold Change,24 HOUR,2.73
same,CXCL10 Raw Est Fold Change,24 HOUR,1.71
same,CYBA Raw Est Fold Change,24 HOUR,−1.64
same,CYP1B1 Raw Est Fold Change,24 HOUR,−2.71
same,DDX17 Raw Est Fold Change,24 HOUR,−1.56
same,DNAPTP6 Raw Est Fold Change,24 HOUR,1.34
same,DRAP1 Raw Est Fold Change,24 HOUR,1.29
same,EFNB2 Raw Est Fold Change,24 HOUR,−1.46
same,EGR1 Raw Est Fold Change,24 HOUR,−2.86
same,EHHADH Raw Est Fold Change,24 HOUR,1.80
same,EMP1 Raw Est Fold Change,24 HOUR,−5.94
same,EPAS1 Raw Est Fold Change,24 HOUR,−2.84
same,ETS2 Raw Est Fold Change,24 HOUR,−1.73
same,ETV6 Raw Est Fold Change,24 HOUR,−1.37
same,ETV7 Raw Est Fold Change,24 HOUR,−3.88
same,FAM125B Raw Est Fold Change,24 HOUR,−1.54
same,FBXO6 Raw Est Fold Change,24 HOUR,3.00
same,FFAR2 Raw Est Fold Change,24 HOUR,−7.50
same,FKBP1B Raw Est Fold Change,24 HOUR,−1.90
same,FKBP5 Raw Est Fold Change,24 HOUR,−1.39
same,FLT1 Raw Est Fold Change,24 HOUR,−1.75
same,FNDC3B Raw Est Fold Change,24 HOUR,−1.67
same,FNDC4 Raw Est Fold Change,24 HOUR,−1.59
same,FUBP1 Raw Est Fold Change,24 HOUR,−1.50
same,FUT4 Raw Est Fold Change,24 HOUR,−1.89
same,G6PC Raw Est Fold Change,24 HOUR,4.22
same,GALNT2 Raw Est Fold Change,24 HOUR,−5.18
same,GBP2 Raw Est Fold Change,24 HOUR,−1.83
same,GBP4 Raw Est Fold Change,24 HOUR,−3.07
same,GCH1 Raw Est Fold Change,24 HOUR,1.17
same,GK Raw Est Fold Change,24 HOUR,−2.50
same,GLUL Raw Est Fold Change,24 HOUR,1.13
same,GNAI1 Raw Est Fold Change,24 HOUR,1.43
same,GOLGA3 Raw Est Fold Change,24 HOUR,−1.24
same,GTF2F1 Raw Est Fold Change,24 HOUR,1.28
same,GTPBP1 Raw Est Fold Change,24 HOUR,−1.24
same,HEG1 Raw Est Fold Change,24 HOUR,−3.64
same,HIF1A Raw Est Fold Change,24 HOUR,−1.47
same,HK2 Raw Est Fold Change,24 HOUR,−1.88
same,HLA-DPA1 Raw Est Fold Change,24 HOUR,−2.10
same,HLA-DPB1 Raw Est Fold Change,24 HOUR,−2.11
same,ICAM1 Raw Est Fold Change,24 HOUR,−6.60
same,IER3 Raw Est Fold Change,24 HOUR,−2.60
same,IFI16 Raw Est Fold Change,24 HOUR,−6.86
same,IFI27 Raw Est Fold Change,24 HOUR,−1.56
same,IFIT1 Raw Est Fold Change,24 HOUR,3.58
same,IFIT3 Raw Est Fold Change,24 HOUR,1.88
same,IFITM1 Raw Est Fold Change,24 HOUR,−3.11
